The data set is described as follows: Stability of the crystalline therapeutic compound (heat, light, oxidation). In kind it is physicochemical. From the text: An example of a poorly water soluble therapeutic compound appropriate for the present invention is midostaurin which is a protein Kinase C inhibitor.

As for `CO[C@@H]1[C@H](N(C)C(=O)c2ccccc2)C[C@H]2O[C@]1(C)n1c3ccccc3c3c4c(c5c6ccccc6n2c5c31)C(=O)NC4` [midostaurin], the “stability to light and oxidation” value is “light-sensitive and oxidizes”. In addition, the thermal stability entry (at melting point of about 260° C.) was “decomposes upon melting”.

Values taken from patent publication US8641948B2, “Method of making solid dispersions of highly crystalline therapeutic compounds” (Novartis AG, priority 2006, dated 2014).
